# Data: US20090149520A1, “OXAZOLIDINONES CONTAINING OXINDOLES AS ANTIBACTERIAL AGENTS” (PFIZER INC, priority 2006, published 2009)
# Columns and labels:
# Type in all cases: cell-based
# E. faecalis MGH-2 EF 1-1 = assay: in vitro antibacterial activity MIC, E. faecalis; settings: Enterococcus faecalis, MGH2EF11; strain MGH-2 EF 1-1; read-out: MICs E. faecalis MGH-2 EF 1-1
# Description: (§1) The in vitro antibacterial activity of the compounds of the present invention may be assessed by following procedures recommended in (1) National Committee for Clinical Laboratory Standards (January 2003), Methods for dilution antimicrobial tests for bacteria that grow aerobically, Approved Standard (6th ed), M7-A6, NCCLS, Wayne, Pa.; (2) National Committee for Clinical Laboratory Standards (March 2001), Methods for antimicrobial susceptibility testing of anaerobic bacteria, Approved Standard (5th ed), M11-A4, NCCLS, Wayne, Pa.; (3) National Committee for Clinical Laboratory Standards (Jan. 2003), MIC testing supplemental tables, M100-S13 (for use with M7-A6), NCCLS, Wayne, Pa.; and (4) Murray P R, Baron E J, Jorgensen J H, et al. Manual of Clinical Microbiology (8th ed) Washington, D.C.: American Society for Microbiology Press, 2003. The antibacterial activity can be presented in the form of MIC value. The MIC value is the lowest concentration of drug, which prevented macroscopically visible growth under the conditions of the test.
# S. pneumoniae SV1 SP-3 = assay: in vitro antibacterial activity MIC, S. pneumoniae; settings: Streptococcus pneumoniae, SV1SP3; strain SV1 SP-3; read-out: MICs S. pneumoniae SV1 SP-3
# Description: as §1
# S. aureus UC-76 SA-1 = assay: in vitro antibacterial activity MIC, S. aureus; settings: Staphylococcus aureus, UC76; strain UC-76 SA-1; read-out: MICs S. aureus UC-76 SA-1
# Description: as §1
MIC (E. faecalis MGH-2 EF 1-1) [µg/mL],MIC (S. pneumoniae SV1 SP-3) [µg/mL],MIC (S. aureus UC-76 SA-1) [µg/mL],Structure (SMILES)
8,8,8,"CC(C)N1C(=O)Cc2cc(N3C[C@H](Cn4ccnn4)OC3=O)ccc21 [Example 1, (R)-5-((1H-1,2,3-triazol-1-yl)methyl)-3-(1-isopropyl-2 oxoindolin-5-yl)oxazolidin-2-one]"
8,4,4,CCN1C(=O)Cc2cc(N3C[C@H](Cn4ccnn4)OC3=O)ccc21 [Example 2]
